Earlier results as cited in US20220226232A1, “Dental formulation comprising xylitol and propolis” (SERVIDENCE INC., priority 2021, published 2022).

Conditions: oral exposition

OC[C@@H](O)[C@H](O)[C@@H](O)CO [xylitol]
prevention of otitis: 20%
